Assay results published in the NIST ThermoML archive (doi:10.1016/j.tca.2019.03.026).
Numbers after ± are expanded uncertainties.

Experiments:
[1] = for Normal melting temperature: DTA
[2] = Molar enthalpy of transition or fusion; details: DSC

Normal melting temperature ([1]; Crystal): 59.00 ± 0.4 °C
Glass transition temperature ([1]; Glass, DSC): -32.00 ± 1 °C
Normal melting temperature ([1]; Metastable crystal): 58.00 ± 0.4 °C
Molar enthalpy of transition or fusion ([2]; Crystal): 28.3 ± 1.9 kJ/mol
Molar enthalpy of transition or fusion ([2]; Metastable crystal): 25.9 ± 2.1 kJ/mol
SMILES: Cc1ccc(C)c(OCCCC(C)(C)C(=O)O)c1 [gemfibrozil]
